Assay results as given in PubChem BioAssay (NCI).
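Assay format: 96-well plates, 48-hour exposure. TGI denotes the concentration required for complete inhibition of growth.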

Columns and labels:
Test in all cases: NCI anticancer screen, dose series, 48 h
SF-295 CNS = tested on: SF-295 CNS
SK-MEL-2 melanoma = tested on: SK-MEL-2 melanoma
EKVX NSCLC = tested on: EKVX NSCLC
HL-60(TB) leukemia = tested on: HL-60(TB) leukemia
LOX IMVI melanoma = tested on: LOX IMVI melanoma
MDA-N = tested on: MDA-N
MDA-MB-435 = tested on: MDA-MB-435
TK-10 renal = tested on: TK-10 renal
BT-549 breast = tested on: BT-549 breast
DU-145 prostate = tested on: DU-145 prostate
SW-620 colon = tested on: SW-620 colon
MCF7 breast = tested on: MCF7 breast
SK-MEL-5 melanoma = tested on: SK-MEL-5 melanoma
MOLT-4 leukemia = tested on: MOLT-4 leukemia
IGROV1 ovarian = tested on: IGROV1 ovarian
NCI-H226 lung = tested on: NCI-H226 lung
SK-OV-3 ovarian = tested on: SK-OV-3 ovarian

CCS(=O)(=O)CCn1cnc2c1c(=O)n(C)c(=O)n2C
TGI (SF-295 CNS): > 100 µM
TGI (SK-MEL-2 melanoma): > 100 µM
TGI (EKVX NSCLC): > 100 µM
TGI (HL-60(TB) leukemia): > 100 µM
TGI (LOX IMVI melanoma): > 100 µM
TGI (MDA-N): > 100 µM
TGI (MDA-MB-435): > 100 µM
TGI (TK-10 renal): > 100 µM
TGI (BT-549 breast): > 100 µM
TGI (DU-145 prostate): > 100 µM
TGI (SW-620 colon): > 100 µM
TGI (MCF7 breast): > 100 µM
TGI (SK-MEL-5 melanoma): > 100 µM
TGI (MOLT-4 leukemia): > 100 µM
TGI (IGROV1 ovarian): > 100 µM
TGI (NCI-H226 lung): > 100 µM

C=CC[C@@]1(C)CCCCCCCCC[C@@](C)(CC=C)C1=O
TGI (SF-295 CNS): 37.4 µM
TGI (SK-MEL-2 melanoma): 37.9 µM
TGI (EKVX NSCLC): > 100 µM
TGI (HL-60(TB) leukemia): 46.1 µM
TGI (LOX IMVI melanoma): 33.6 µM
TGI (MDA-N): > 100 µM
TGI (MDA-MB-435): > 100 µM
TGI (TK-10 renal): > 100 µM
TGI (BT-549 breast): 62.3 µM
TGI (DU-145 prostate): > 100 µM
TGI (SW-620 colon): 63.5 µM
TGI (MCF7 breast): > 100 µM
TGI (SK-MEL-5 melanoma): 29.5 µM
TGI (MOLT-4 leukemia): 43.2 µM
TGI (IGROV1 ovarian): > 100 µM
TGI (SK-OV-3 ovarian): > 100 µM
TGI (NCI-H226 lung): 48.4 µM

CCc1c(Cc2cc(C)cc(C)c2)n2c(nc1=O)SCC2CBr (stereo not given)
TGI (SK-MEL-2 melanoma): > 50 µM
TGI (EKVX NSCLC): > 50 µM
TGI (HL-60(TB) leukemia): > 50 µM
TGI (LOX IMVI melanoma): > 50 µM
TGI (MDA-N): > 50 µM
TGI (MDA-MB-435): > 50 µM
TGI (TK-10 renal): > 50 µM
TGI (BT-549 breast): > 50 µM
TGI (DU-145 prostate): > 50 µM
TGI (SW-620 colon): > 50 µM
TGI (MCF7 breast): > 50 µM
TGI (SK-MEL-5 melanoma): > 50 µM
TGI (MOLT-4 leukemia): > 50 µM
TGI (IGROV1 ovarian): > 50 µM
TGI (NCI-H226 lung): > 50 µM

Cc1c(C)c2c(c(N)c1C#N)C(=O)N(CCN1CCNCC1)C2=O
TGI (SF-295 CNS): > 100 µM
TGI (SK-MEL-2 melanoma): > 100 µM
TGI (EKVX NSCLC): > 100 µM
TGI (HL-60(TB) leukemia): > 100 µM
TGI (LOX IMVI melanoma): 47.9 µM
TGI (MDA-N): > 100 µM
TGI (MDA-MB-435): > 100 µM
TGI (TK-10 renal): > 100 µM
TGI (BT-549 breast): > 100 µM
TGI (DU-145 prostate): > 100 µM
TGI (SW-620 colon): > 100 µM
TGI (MCF7 breast): > 100 µM
TGI (MOLT-4 leukemia): > 100 µM
TGI (IGROV1 ovarian): > 100 µM
TGI (NCI-H226 lung): > 100 µM

CCOC(=O)/C=C(/C(=O)OCC)n1ccc(=O)n(/C(=C/C(=O)OCC)C(=O)OCC)c1=O
TGI (SF-295 CNS): 55.1 µM
TGI (SK-MEL-2 melanoma): 17.6 µM
TGI (EKVX NSCLC): 36 µM
TGI (HL-60(TB) leukemia): 2.91 µM
TGI (LOX IMVI melanoma): 10.5 µM
TGI (MDA-N): 26.7 µM
TGI (MDA-MB-435): 22.1 µM
TGI (TK-10 renal): 17.6 µM
TGI (BT-549 breast): 30.2 µM
TGI (DU-145 prostate): 34.9 µM
TGI (SW-620 colon): 4.07 µM
TGI (MCF7 breast): 19.9 µM
TGI (SK-MEL-5 melanoma): 28.6 µM
TGI (MOLT-4 leukemia): 3.84 µM
TGI (IGROV1 ovarian): 31.4 µM
TGI (SK-OV-3 ovarian): 43.7 µM
TGI (NCI-H226 lung): 18.9 µM

O=C=NCCCCCCN1C(=O)N2C(c3ccccc3)N(CCCCCCN=C=O)C(=O)N2C1c1ccccc1 (stereo not given)
TGI (SF-295 CNS): > 100 µM
TGI (SK-MEL-2 melanoma): > 100 µM
TGI (EKVX NSCLC): > 100 µM
TGI (HL-60(TB) leukemia): > 100 µM
TGI (LOX IMVI melanoma): > 100 µM
TGI (MDA-N): > 100 µM
TGI (MDA-MB-435): > 100 µM
TGI (TK-10 renal): > 100 µM
TGI (BT-549 breast): > 100 µM
TGI (DU-145 prostate): > 100 µM
TGI (SW-620 colon): > 100 µM
TGI (MCF7 breast): > 100 µM
TGI (SK-MEL-5 melanoma): > 100 µM
TGI (MOLT-4 leukemia): > 100 µM
TGI (IGROV1 ovarian): > 100 µM
TGI (NCI-H226 lung): > 100 µM

NC(=Nc1ccc(O)cc1)S(=O)O
TGI (SF-295 CNS): > 100 µM
TGI (SK-MEL-2 melanoma): > 100 µM
TGI (EKVX NSCLC): > 100 µM
TGI (HL-60(TB) leukemia): > 100 µM
TGI (LOX IMVI melanoma): > 100 µM
TGI (MDA-N): > 100 µM
TGI (MDA-MB-435): > 100 µM
TGI (TK-10 renal): > 100 µM
TGI (BT-549 breast): > 100 µM
TGI (DU-145 prostate): > 100 µM
TGI (SW-620 colon): > 100 µM
TGI (MCF7 breast): > 100 µM
TGI (SK-MEL-5 melanoma): > 100 µM
TGI (MOLT-4 leukemia): > 100 µM
TGI (IGROV1 ovarian): > 100 µM
TGI (SK-OV-3 ovarian): > 100 µM
TGI (NCI-H226 lung): > 100 µM

C=CCNC1=C2C[C@@H](C)C[C@@H](OC)[C@H](OC(=O)CN)[C@H](C)/C=C(\C)[C@@H](OC(N)=O)[C@H](OC)/C=C\C=C(/C)C(=O)NC(=CC1=O)C2=O
TGI (SF-295 CNS): 12.6 µM
TGI (SK-MEL-2 melanoma): 18.7 µM
TGI (EKVX NSCLC): 21.7 µM
TGI (HL-60(TB) leukemia): 8.53 µM
TGI (LOX IMVI melanoma): 6.45 µM
TGI (MDA-N): 13 µM
TGI (MDA-MB-435): 14.3 µM
TGI (TK-10 renal): 14.2 µM
TGI (BT-549 breast): 28.3 µM
TGI (DU-145 prostate): > 40.9 µM
TGI (SW-620 colon): > 100 µM
TGI (MCF7 breast): 12.8 µM
TGI (SK-MEL-5 melanoma): 17.9 µM
TGI (MOLT-4 leukemia): > 36.1 µM
TGI (IGROV1 ovarian): 15.5 µM
TGI (SK-OV-3 ovarian): 12.5 µM

COc1cc2cc(C(=O)N3CC(CCl)c4ccccc43)[nH]c2c(OC)c1OC (stereo not given)
TGI (SF-295 CNS): > 100 µM
TGI (SK-MEL-2 melanoma): > 100 µM
TGI (EKVX NSCLC): > 100 µM
TGI (HL-60(TB) leukemia): > 100 µM
TGI (LOX IMVI melanoma): > 100 µM
TGI (MDA-N): > 100 µM
TGI (MDA-MB-435): > 100 µM
TGI (TK-10 renal): > 100 µM
TGI (BT-549 breast): > 100 µM
TGI (DU-145 prostate): > 100 µM
TGI (SW-620 colon): > 100 µM
TGI (MCF7 breast): > 100 µM
TGI (SK-MEL-5 melanoma): > 100 µM
TGI (MOLT-4 leukemia): > 100 µM
TGI (IGROV1 ovarian): > 100 µM
TGI (SK-OV-3 ovarian): > 100 µM
TGI (NCI-H226 lung): > 100 µM

Cc1ccc(S(=O)(=O)NC(=O)Nc2ccc(S(N)(=O)=O)cc2S(N)(=O)=O)cc1
TGI (SF-295 CNS): > 100 µM
TGI (SK-MEL-2 melanoma): > 100 µM
TGI (EKVX NSCLC): > 100 µM
TGI (HL-60(TB) leukemia): > 100 µM
TGI (LOX IMVI melanoma): > 100 µM
TGI (MDA-N): > 100 µM
TGI (MDA-MB-435): > 100 µM
TGI (TK-10 renal): > 100 µM
TGI (BT-549 breast): > 100 µM
TGI (DU-145 prostate): > 100 µM
TGI (SW-620 colon): > 100 µM
TGI (MCF7 breast): > 100 µM
TGI (SK-MEL-5 melanoma): > 100 µM
TGI (MOLT-4 leukemia): > 100 µM
TGI (IGROV1 ovarian): > 100 µM
TGI (SK-OV-3 ovarian): > 100 µM
TGI (NCI-H226 lung): > 100 µM

C=CC(C)CCC(C/C=C(\C)CCC=C(C)C)C(=C)CCCC(C)C (stereo not given)
TGI (SF-295 CNS): > 100 µM
TGI (SK-MEL-2 melanoma): > 100 µM
TGI (EKVX NSCLC): > 100 µM
TGI (HL-60(TB) leukemia): > 100 µM
TGI (LOX IMVI melanoma): > 100 µM
TGI (MDA-N): > 100 µM
TGI (MDA-MB-435): > 100 µM
TGI (TK-10 renal): > 100 µM
TGI (BT-549 breast): > 100 µM
TGI (DU-145 prostate): > 100 µM
TGI (SW-620 colon): > 100 µM
TGI (MCF7 breast): > 100 µM
TGI (SK-MEL-5 melanoma): > 100 µM
TGI (MOLT-4 leukemia): > 100 µM
TGI (IGROV1 ovarian): > 100 µM
TGI (SK-OV-3 ovarian): > 100 µM

O=C1NC(N2CCCC(CO)C2)=N/C1=C\c1ccc(Cl)cc1 (stereo not given)
TGI (SF-295 CNS): > 100 µM
TGI (SK-MEL-2 melanoma): > 100 µM
TGI (EKVX NSCLC): > 100 µM
TGI (HL-60(TB) leukemia): > 100 µM
TGI (LOX IMVI melanoma): > 100 µM
TGI (MDA-N): > 100 µM
TGI (MDA-MB-435): > 100 µM
TGI (TK-10 renal): > 100 µM
TGI (BT-549 breast): > 100 µM
TGI (DU-145 prostate): > 100 µM
TGI (SW-620 colon): > 100 µM
TGI (MCF7 breast): > 100 µM
TGI (SK-MEL-5 melanoma): > 100 µM
TGI (MOLT-4 leukemia): > 100 µM
TGI (IGROV1 ovarian): > 100 µM
TGI (SK-OV-3 ovarian): > 100 µM
TGI (NCI-H226 lung): > 100 µM

S=c1sc2nc(Cl)nc(Cl)c2s1
TGI (SF-295 CNS): 31.7 µM
TGI (SK-MEL-2 melanoma): 23.8 µM
TGI (EKVX NSCLC): 31.8 µM
TGI (HL-60(TB) leukemia): 8.78 µM
TGI (LOX IMVI melanoma): 30.3 µM
TGI (MDA-N): 24.8 µM
TGI (MDA-MB-435): 22.4 µM
TGI (TK-10 renal): 26.5 µM
TGI (BT-549 breast): 24 µM
TGI (DU-145 prostate): 30.9 µM
TGI (SW-620 colon): 21.1 µM
TGI (MCF7 breast): 25.2 µM
TGI (SK-MEL-5 melanoma): 21.6 µM
TGI (MOLT-4 leukemia): > 29.3 µM
TGI (IGROV1 ovarian): 27.7 µM
TGI (SK-OV-3 ovarian): 31.6 µM
TGI (NCI-H226 lung): 32.7 µM

N#CCCN(CCN(C(=O)Nc1ccccc1)c1ccccc1)C(=O)Nc1ccccc1
TGI (SF-295 CNS): > 100 µM
TGI (SK-MEL-2 melanoma): > 100 µM
TGI (EKVX NSCLC): > 100 µM
TGI (HL-60(TB) leukemia): 34.7 µM
TGI (LOX IMVI melanoma): > 100 µM
TGI (MDA-N): > 100 µM
TGI (MDA-MB-435): > 100 µM
TGI (TK-10 renal): > 100 µM
TGI (BT-549 breast): > 100 µM
TGI (DU-145 prostate): > 100 µM
TGI (SW-620 colon): > 100 µM
TGI (MCF7 breast): > 100 µM
TGI (SK-MEL-5 melanoma): > 100 µM
TGI (MOLT-4 leukemia): > 84.5 µM
TGI (IGROV1 ovarian): > 100 µM
TGI (SK-OV-3 ovarian): > 100 µM
TGI (NCI-H226 lung): > 100 µM
